Source: ChEMBL document CHEMBL3751728, “C5-substituted pyrido[2,3-d]pyrimidin-7-ones as highly specific kinase inhibitors targeting the clinical resistance-related EGFRT790Mmutant” (Medchemcomm, 2015)
Calls of active or inactive are those of the source. No cut-off for these calls is given here.

Key:
[1] = molecular target: T1, Epidermal growth factor receptor (Homo sapiens, UniProt P00533); test: Inhibiton of wild type EGFR (unknown origin) using Poly (Glu4Tyr1) as substrate incubated for 1 hr by ELISA; assay type: single protein
[2] = molecular target: T2, Epidermal growth factor receptor (Homo sapiens, UniProt P00533, L858R/T790M); assay type: protein assay
[3] = molecular target: T2, Epidermal growth factor receptor
[4] = molecular target: T1, Epidermal growth factor receptor
[5] = organism: Homo sapiens; test: Selectivity ratio of Kd for wild type human EGFR to Kd for human EGFR L858R/T790M mutant
[6] = organism: Homo sapiens; test: Selectivity index, ratio of IC50 for wild type EGFR (unknown origin) to IC50 for EGFR L858R/T790M mutant (unknown origin)
[7] = tested on: Epidermal growth factor receptor (Homo sapiens), P00533 [T790M]; settings: H1975, 0.3 to 30 nM
[8] = tested on: Epidermal growth factor receptor (Homo sapiens), P00533 [T790M]; settings: H1975, 0.3 to 30 nM; remark: listed apart in the source
[9] = tested on: Epidermal growth factor receptor (Homo sapiens), P00533 [T790M]; settings: H1975, 0.3 to 30 nM; remark: listed apart in the source
[10] = tested on: Epidermal growth factor receptor (Homo sapiens), P00533 [L858R,T790M]; settings: 100 nM
[11] = tested on: NCI-H1975; test: Effect on total EGFR T790M mutant level in EGF-stimulated human NCI-H1975 cells preincubated for 2 hrs followed by EGF stimulation measured after 15 mins by Western blot analysis; assay type: ADME, cell-based; settings: nci-h1975, 0.25 h
[12] = tested on: Epidermal growth factor receptor (Homo sapiens), P00533 [L858R,T790M]; settings: H1975, 1 uM
[13] = molecular target: T1, Epidermal growth factor receptor; test: Inhibition of EGF-stimulated wild type EGFR phosphorylation in human A431 cells assessed as suppression of ERK phosphorylation at 100 nM preincubated for 2 hrs followed by EGF stimulation measured after 15 mins by Western blot analysis; assay type: cell-based; settings: a-431, 0.25 h, 0.1 µM
[14] = tested on: NCI-H1975; test: Effect on total ERK level in EGF-stimulated human NCI-H1975 cells expressing EGFR T790M mutant preincubated for 2 hrs followed by EGF stimulation measured after 15 mins by Western blot analysis; assay type: ADME, cell-based; settings: nci-h1975, 0.25 h
[15] = tested on: NCI-H1975; test: Selectivity index, ratio of IC50 for human GES1 cells to IC50 for human NCI-H1975 cells harboring EGFR L858R/T790M mutant
[16] = tested on: NCI-H1975; test: Effect on total AKT level in EGF-stimulated human NCI-H1975 cells expressing EGFR T790M mutant preincubated for 2 hrs followed by EGF stimulation measured after 15 mins by Western blot analysis; assay type: ADME, cell-based; settings: nci-h1975, 0.25 h
[17] = tested on: Epidermal growth factor receptor (Homo sapiens), P00533 [T790M]; settings: 100 nM
[18] = molecular target: T1, Epidermal growth factor receptor; test: Inhibition of EGF-stimulated wild type EGFR phosphorylation in human A431 cells at 100 nM preincubated for 2 hrs followed by EGF stimulation measured after 15 mins by Western blot analysis; assay type: cell-based; settings: a-431, 0.25 h, 0.1 µM
[19] = tested on: NCI-H1975; test: Selectivity index, ratio of IC50 for human MCF10A cells to IC50 for human NCI-H1975 cells harboring EGFR L858R/T790M mutant
[20] = tested on: A-431; test: Cytotoxicity against human A431 cells overexpressing wild type EGFR after 72 hrs by SRB assay; assay type: cell-based; settings: A-431, 72 h
[21] = tested on: NCI-H1975; test: Cytotoxicity against human NCI-H1975 harboring EGFR L858R/T790M mutant after 72 hrs by SRB assay; assay type: functional, cell-based; settings: NCI-H1975, 72 h
[22] = tested on: NCI-H1975; test: Selectivity index, ratio of IC50 for human LO2 cells to IC50 for human NCI-H1975 cells harboring EGFR L858R/T790M mutant
[23] = tested on: NCI-H1975; test: Selectivity index, ratio of IC50 for human WI38 cells to IC50 for human NCI-H1975 cells harboring EGFR L858R/T790M mutant
[24] = molecular target: T1, Epidermal growth factor receptor; test: Inhibition of EGF-stimulated wild type EGFR phosphorylation in human A431 cells assessed as suppression of AKT phosphorylation at 100 nM preincubated for 2 hrs followed by EGF stimulation measured after 15 mins by Western blot analysis; assay type: cell-based; settings: a-431, 0.25 h, 0.1 µM
[25] = tested on: NCI-H1975; test: Selectivity index, ratio of IC50 for human A431 cells overexpressing wild type EGFR to IC50 for human NCI-H1975 cells harboring EGFR L858R/T790M mutant

T2 sequence (P00533 25-1210 T790M/L858R limits assumed): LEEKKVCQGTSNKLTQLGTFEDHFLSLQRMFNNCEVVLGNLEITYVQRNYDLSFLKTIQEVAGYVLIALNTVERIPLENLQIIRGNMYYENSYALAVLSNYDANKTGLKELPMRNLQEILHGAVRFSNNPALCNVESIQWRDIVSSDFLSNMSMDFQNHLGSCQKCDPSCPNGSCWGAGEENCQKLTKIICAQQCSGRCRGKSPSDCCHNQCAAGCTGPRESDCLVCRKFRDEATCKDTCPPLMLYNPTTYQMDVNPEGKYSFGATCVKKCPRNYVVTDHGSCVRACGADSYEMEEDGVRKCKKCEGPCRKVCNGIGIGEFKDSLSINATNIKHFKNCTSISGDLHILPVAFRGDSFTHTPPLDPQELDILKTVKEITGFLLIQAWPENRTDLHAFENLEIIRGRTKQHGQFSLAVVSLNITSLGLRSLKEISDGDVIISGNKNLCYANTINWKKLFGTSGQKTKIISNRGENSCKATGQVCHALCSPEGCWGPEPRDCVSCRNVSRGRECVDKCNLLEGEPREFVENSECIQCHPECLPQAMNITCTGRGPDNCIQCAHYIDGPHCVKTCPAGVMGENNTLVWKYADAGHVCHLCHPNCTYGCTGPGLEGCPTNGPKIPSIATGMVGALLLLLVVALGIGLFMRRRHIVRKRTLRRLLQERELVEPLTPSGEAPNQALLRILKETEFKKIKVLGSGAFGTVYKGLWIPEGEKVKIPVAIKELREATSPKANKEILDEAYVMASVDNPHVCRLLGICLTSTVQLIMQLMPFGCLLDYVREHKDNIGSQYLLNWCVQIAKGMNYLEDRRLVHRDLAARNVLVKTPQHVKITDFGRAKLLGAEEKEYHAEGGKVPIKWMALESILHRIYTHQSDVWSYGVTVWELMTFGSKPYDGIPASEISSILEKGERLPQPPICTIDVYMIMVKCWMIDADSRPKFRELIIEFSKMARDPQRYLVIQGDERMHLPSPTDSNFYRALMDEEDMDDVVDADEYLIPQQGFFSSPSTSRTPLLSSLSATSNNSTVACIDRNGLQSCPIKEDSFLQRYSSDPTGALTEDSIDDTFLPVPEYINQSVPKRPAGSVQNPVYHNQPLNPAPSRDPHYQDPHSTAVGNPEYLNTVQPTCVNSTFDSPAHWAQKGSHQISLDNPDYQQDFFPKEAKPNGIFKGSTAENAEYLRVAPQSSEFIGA
T1 sequence (P00533 whole entry): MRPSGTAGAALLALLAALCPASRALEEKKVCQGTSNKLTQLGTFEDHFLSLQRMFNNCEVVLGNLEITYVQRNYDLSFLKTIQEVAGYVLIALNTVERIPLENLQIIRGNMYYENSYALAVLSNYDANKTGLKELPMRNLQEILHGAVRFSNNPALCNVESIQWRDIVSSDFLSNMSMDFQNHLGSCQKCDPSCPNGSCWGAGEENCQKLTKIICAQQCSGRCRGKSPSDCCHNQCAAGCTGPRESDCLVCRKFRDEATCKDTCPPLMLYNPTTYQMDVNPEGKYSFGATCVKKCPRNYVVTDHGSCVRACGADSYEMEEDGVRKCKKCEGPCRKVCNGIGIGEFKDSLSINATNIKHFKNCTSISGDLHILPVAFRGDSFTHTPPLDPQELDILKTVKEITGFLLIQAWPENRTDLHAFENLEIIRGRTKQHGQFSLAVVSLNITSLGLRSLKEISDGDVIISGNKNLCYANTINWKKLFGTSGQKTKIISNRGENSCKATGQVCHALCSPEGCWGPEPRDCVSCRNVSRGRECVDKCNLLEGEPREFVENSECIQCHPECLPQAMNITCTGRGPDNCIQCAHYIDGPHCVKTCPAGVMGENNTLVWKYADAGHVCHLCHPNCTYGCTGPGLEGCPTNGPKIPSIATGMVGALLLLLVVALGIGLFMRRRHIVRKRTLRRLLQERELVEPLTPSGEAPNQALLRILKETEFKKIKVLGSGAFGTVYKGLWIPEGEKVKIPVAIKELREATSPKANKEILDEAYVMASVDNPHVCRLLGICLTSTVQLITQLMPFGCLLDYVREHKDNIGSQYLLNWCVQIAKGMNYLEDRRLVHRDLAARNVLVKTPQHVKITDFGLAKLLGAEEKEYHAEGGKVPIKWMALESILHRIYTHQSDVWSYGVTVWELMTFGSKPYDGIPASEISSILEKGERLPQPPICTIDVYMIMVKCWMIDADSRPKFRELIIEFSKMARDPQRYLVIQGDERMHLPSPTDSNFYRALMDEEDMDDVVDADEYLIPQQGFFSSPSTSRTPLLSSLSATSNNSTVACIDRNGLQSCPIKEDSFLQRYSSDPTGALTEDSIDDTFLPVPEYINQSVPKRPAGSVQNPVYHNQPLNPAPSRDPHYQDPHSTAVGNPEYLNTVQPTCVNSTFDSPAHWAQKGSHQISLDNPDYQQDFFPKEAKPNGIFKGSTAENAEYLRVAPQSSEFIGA
Chain of Epidermal growth factor receptor (Homo sapiens), P00533 [T790M] (P00533 whole entry T790M): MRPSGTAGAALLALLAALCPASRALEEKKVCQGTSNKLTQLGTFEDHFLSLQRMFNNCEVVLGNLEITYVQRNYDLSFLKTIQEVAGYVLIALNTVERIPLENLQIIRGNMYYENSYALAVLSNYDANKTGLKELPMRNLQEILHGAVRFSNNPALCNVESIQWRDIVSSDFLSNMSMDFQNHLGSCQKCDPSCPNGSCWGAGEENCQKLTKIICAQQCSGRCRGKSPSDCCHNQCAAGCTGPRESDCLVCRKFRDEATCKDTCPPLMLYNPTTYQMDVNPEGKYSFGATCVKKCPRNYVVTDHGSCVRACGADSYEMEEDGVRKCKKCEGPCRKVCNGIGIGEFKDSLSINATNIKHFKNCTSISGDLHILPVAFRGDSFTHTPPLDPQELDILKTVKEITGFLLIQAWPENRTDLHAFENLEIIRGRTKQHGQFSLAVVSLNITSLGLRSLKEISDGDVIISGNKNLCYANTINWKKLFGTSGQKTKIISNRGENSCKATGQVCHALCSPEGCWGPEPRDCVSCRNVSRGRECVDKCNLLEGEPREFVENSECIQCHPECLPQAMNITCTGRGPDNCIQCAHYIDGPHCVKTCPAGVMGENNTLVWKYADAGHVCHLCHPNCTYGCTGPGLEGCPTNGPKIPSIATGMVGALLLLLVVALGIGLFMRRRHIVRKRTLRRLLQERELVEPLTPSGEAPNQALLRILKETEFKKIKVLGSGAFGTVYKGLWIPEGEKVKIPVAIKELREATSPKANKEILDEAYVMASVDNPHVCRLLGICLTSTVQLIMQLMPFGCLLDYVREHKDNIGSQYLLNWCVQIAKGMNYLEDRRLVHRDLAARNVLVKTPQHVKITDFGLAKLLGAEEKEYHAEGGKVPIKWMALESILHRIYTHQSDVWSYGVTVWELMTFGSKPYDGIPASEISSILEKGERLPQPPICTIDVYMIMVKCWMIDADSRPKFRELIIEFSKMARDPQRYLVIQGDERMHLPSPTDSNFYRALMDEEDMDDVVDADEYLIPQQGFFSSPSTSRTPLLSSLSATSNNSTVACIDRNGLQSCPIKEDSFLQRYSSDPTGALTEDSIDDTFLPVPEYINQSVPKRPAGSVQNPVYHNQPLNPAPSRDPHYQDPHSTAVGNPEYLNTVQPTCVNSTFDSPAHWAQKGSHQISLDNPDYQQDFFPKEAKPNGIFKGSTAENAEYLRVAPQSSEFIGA
Chain of Epidermal growth factor receptor (Homo sapiens), P00533 [L858R,T790M] (P00533 whole entry T790M/L858R, looked up): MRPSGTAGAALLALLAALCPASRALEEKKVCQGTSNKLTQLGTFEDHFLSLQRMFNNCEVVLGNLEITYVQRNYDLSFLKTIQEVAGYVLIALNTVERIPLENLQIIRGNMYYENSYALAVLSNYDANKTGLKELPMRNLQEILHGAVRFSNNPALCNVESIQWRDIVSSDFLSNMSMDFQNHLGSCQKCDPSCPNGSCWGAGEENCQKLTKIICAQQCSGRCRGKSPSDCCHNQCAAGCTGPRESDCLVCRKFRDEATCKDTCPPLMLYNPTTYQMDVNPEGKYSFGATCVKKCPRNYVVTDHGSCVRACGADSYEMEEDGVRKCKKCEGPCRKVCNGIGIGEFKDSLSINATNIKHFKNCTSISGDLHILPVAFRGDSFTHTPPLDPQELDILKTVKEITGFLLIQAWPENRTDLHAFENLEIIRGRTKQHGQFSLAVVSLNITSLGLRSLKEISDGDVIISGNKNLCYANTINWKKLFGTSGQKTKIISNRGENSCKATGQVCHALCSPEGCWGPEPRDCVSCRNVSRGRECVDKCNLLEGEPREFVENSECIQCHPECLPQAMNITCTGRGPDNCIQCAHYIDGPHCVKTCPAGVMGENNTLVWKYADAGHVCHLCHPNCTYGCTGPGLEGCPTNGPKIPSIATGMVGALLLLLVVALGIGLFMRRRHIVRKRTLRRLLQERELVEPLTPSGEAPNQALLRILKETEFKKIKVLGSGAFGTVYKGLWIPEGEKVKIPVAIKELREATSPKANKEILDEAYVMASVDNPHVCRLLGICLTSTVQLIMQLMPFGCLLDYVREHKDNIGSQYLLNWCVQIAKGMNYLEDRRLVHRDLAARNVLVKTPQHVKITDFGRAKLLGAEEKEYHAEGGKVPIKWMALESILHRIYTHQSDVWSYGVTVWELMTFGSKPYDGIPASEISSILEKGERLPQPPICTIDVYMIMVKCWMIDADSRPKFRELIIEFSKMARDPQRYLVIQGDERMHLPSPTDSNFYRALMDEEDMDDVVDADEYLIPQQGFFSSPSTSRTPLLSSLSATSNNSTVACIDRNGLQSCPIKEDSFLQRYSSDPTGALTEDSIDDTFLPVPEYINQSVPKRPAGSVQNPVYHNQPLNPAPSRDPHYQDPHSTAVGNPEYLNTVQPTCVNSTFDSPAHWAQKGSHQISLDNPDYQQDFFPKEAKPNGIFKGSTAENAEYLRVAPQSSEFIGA

Structure (SMILES) | IC50 [1] [nM] | IC50 [2] [nM] | Kd [3] [nM] | Kd [4] [nM] | further results
C=CC(=O)Nc1cccc(-n2c(=O)cc(N(C)C)c3cnc(Nc4ccc(N5CCN(C)CC5)cc4OC)nc32)c1 | 210 | 95 | – | – | –
C=CC(=O)Nc1cccc(-n2c(=O)cc(-c3ccc(-c4ccccc4)cc3)c3cnc(Nc4ccc(N5CCN(C)CC5)cc4OC)nc32)c1 | > 1000 | > 1000 | – | – | –
C=CC(=O)Nc1cccc(-n2c(=O)c(C)cc3cnc(Nc4ccc(N5CCN(C)CC5)cc4OC)nc32)c1 | 16 | 1.3 | 0.88 | 6.2 | –
C=CC(=O)Nc1cccc(-n2c(=O)ccc3cnc(Nc4ccc(N5CCN(C)CC5)cc4OC)nc32)c1 | 15 | 0.5 | 0.43 | 14 | Selectivity ratio [5]: 32.5; Ratio IC50 [6]: 30
C=CC(=O)Nc1cccc(-n2c(=O)cc(C)c3cnc(Nc4ccc(N5CCN(C)CC5)cc4OC(C)C)nc32)c1 | > 1000 | 78 | – | – | –
C=CC(=O)Nc1cccc(-n2c(=O)cc(CC)c3cnc(Nc4ccc(N5CCN(C)CC5)cc4OC)nc32)c1 | 114 | 6.7 | 1.8 | 140 | –
C=CC(=O)Nc1cccc(-n2c(=O)c(Cc3ccccc3)cc3cnc(Nc4ccc(N5CCN(C)CC5)cc4OC)nc32)c1 | 1 | 0.5 | 0.5 | 1.2 | Ratio IC50 [6]: 2
C=CC(=O)Nc1cccc(-n2c(=O)cc(CCC)c3cnc(Nc4ccc(N5CCN(C)CC5)cc4OC)nc32)c1 | 970 | 17.8 | – | – | –
C=CC(=O)Nc1cccc(-n2c(=O)cc(-c3ccccc3)c3cnc(Nc4ccc(N5CCN(C)CC5)cc4OC)nc32)c1 | 97 | 21 | – | – | –
C=CC(=O)Nc1cccc(Oc2nc(Nc3ccc(N4CCN(C)CC4)cc3OC)ncc2Cl)c1 | – | – | – | – | inhibition [7]: Active; inhibition [8]: Active; inhibition [9]: Active
C=CC(=O)Nc1cccc(-n2c(=O)cc(C3CC3)c3cnc(Nc4ccc(N5CCN(C)CC5)cc4OC)nc32)c1 | 120 | 10 | 2.2 | 57 | –
C=CC(=O)Nc1cccc(-n2c(=O)cc(C(C)C)c3cnc(Nc4ccc(N5CCN(C)CC5)cc4OC)nc32)c1 | 98 | 94 | – | – | –
C=CC(=O)Nc1cccc(-n2c(=O)c(-c3ccccc3)cc3cnc(Nc4ccc(N5CCN(C)CC5)cc4OC)nc32)c1 | 7.8 | 0.2 | 0.5 | 2.5 | –
C=CC(=O)Nc1cccc(-n2c(=O)cc(C)c3cnc(Nc4ccc(N5CCN(C)CC5)cc4OCCC)nc32)c1 | 270 | 19 | – | – | –
C=CC(=O)Nc1cccc(-n2c(=O)cc(C)c3cnc(Nc4ccc(N5CCN(C)CC5)cc4OCC)nc32)c1 | 170 | 11 | 1.2 | 350 | –
C=CC(=O)Nc1cccc(-n2c(=O)cc(C)c3c(C)nc(Nc4ccc(N5CCN(C)CC5)cc4OC)nc32)c1 | > 1000 | 280 | – | – | –
C=CC(=O)Nc1cccc(-n2c(=O)c(-c3ccccc3)c(C)c3cnc(Nc4ccc(N5CCN(C)CC5)cc4OC)nc32)c1 | 20 | 1.6 | 0.91 | 4.3 | –
C=CC(=O)Nc1cccc(-n2c(=O)cc(C(F)(F)F)c3cnc(Nc4ccc(N5CCN(C)CC5)cc4OC)nc32)c1 | > 1000 | 39 | – | – | –
C=CC(=O)Nc1cccc(-n2c(=O)cc(C)c3cnc(Nc4ccc(N5CCN(C)CC5)cc4OC)nc32)c1 | 240 | 0.8 | 0.26 | 48 | inhibition [10]: 99.5%; Activity [11]: Non-toxic; inhibition [12]: Active; inhibition (INH) [13]: Active; Activity [14]: Non-toxic; Ratio IC50 [15]: >1000; Selectivity ratio [5]: 185; Activity [16]: Non-toxic; inhibition [17]: < 65%; inhibition (INH) [18]: Active; Ratio IC50 [19]: >1000; IC50 [20]: 870 nM; IC50 [21]: 2.8 nM; Ratio IC50 [6]: 300; Ratio IC50 [22]: >1000; Ratio IC50 [23]: >1000; inhibition (INH) [24]: Active; Ratio IC50 [25]: 311
